How the values were obtained:
[1] = test system: JURKAT cells; assay: Apoptosis test (annexin-V FITC / propidium iodide flow cytometry), delta-apoptosis; type: cell-based, human
Experimental: To obtain the desired quantity of JURKAT cells, they were cultured in an RPMI 1640 medium supplemented with foetal calf serum (10% v/v), 1% L-glutamine (Lonza) and 1% penicillin-streptomycin (Lonza). Cells were grown in culture flasks placed in an incubator at 37° C. and 5% CO2. The JURKAT doubling time was approximately 27 hours.
The cells were suspended in a solution of PBS (phosphate buffer saline) or in a 2% haematocrit solution comprising 1/14 of the anticoagulant ACD-A, a 50/50 v/v mixture of NaCl and plasma. The final volume was such that the thickness of the cell suspension in the container was around 3 mm.
In the case of UVA irradiation, the cell solution also contained 200 ng/ ml or 333° ng/ml of 8-MOP.
At the end of the irradiation step, the cell solutions with a haematocrit level of 2% are washed in order to recover as many JURKAT cells as possible for culture with low contamination by red blood cells. To do this, the components were separated by density gradient using a Ficoll solution (GE Healthcare).
After JURKAT isolation, the cells were washed three times to remove the Ficoll solution. The first two washes were performed in a PBS solution with 2 mM EDTA (Thermo Fisher), and the third was performed in a PBS solution. The cells were then re-suspended in supplemented RPMI medium and counted using Vi-cell and ABX in order to estimate the number of JURKAT that had been isolated and to assess the quantity of residual red blood cells.
(§1) To monitor the parameters of interest (apoptosis and inhibition of JURKAT proliferation), the cells were cultured using cell counting. To do this, 5.10^6 treated cells and 5.10^6 untreated cells were seeded in 10 ml of culture medium.
Apoptosis was studied by flow cytometry, using double labelling of cells with annexin-V coupled to a fluorophore FITC and propidium iodide (PI).
Delta-apoptosis was determined by the following formula:
Δapoptosis=(% apoptosis of treated cells−% apoptosis of untreated cells) [Math. 1]

[2] = test system: JURKAT cells; assay: Inhibition of cell proliferation (Vi-cell counting); type: cell-based, human
Experimental: The rate of inhibition of cell proliferation is determined by dividing the difference between the proliferation rate of the unirradiated control cells and the proliferation rate of the irradiated cells by the proliferation rate of the unirradiated control cells, the rate of cell proliferation being determined by dividing the total number of final cells by the total number of starting cells. The rate of inhibition of proliferation was determined 3 days after irradiation and after the cells had been cultured.
as §1
The initial JURKAT population was 5.10^6 cells per culture flask. The number of cells per culture flask was then counted by Vi-cell.
To do this, the culture medium with the cells was centrifuged at 1500 rpm for 5 minutes and the pellet was resuspended in supplemented RPMI culture medium. Depending on the cell density, a 1/10 dilution in PBS could be performed.
The percentage inhibition of cell proliferation on day n (Dn) was determined by the following formula:
% PI(Dn)=100−% P(Dn) [Math. 2]
in which % P(Dn) is the cell proliferation rate at n days, determined by the following formula: […]

[3] = JURKAT cells 330.10^6 in 300 ml, 2% haematocrit plasma/saline, 333 ng/ml 8-MOP, bag, Macogenic G2 (Maco Pharma ECP system)

SMILES: COc1c2occc2cc2ccc(=O)oc12 [8-MOP, 8-methoxypsoralen]
- UVA dose from which acceptance criterion in terms of delta-apoptosis was achieved [1, 3]: ≥ 2 J/cm^2
- UVA dose meeting the acceptance criterion in terms of delta-apoptosis ([1]; JURKAT cells in PBS, 200 ng/ml 8-MOP, Petri dish, BS02 irradiator, criterion delta-apoptosis 30-40% one day, 50-60% two days after irradiation): 0.13 J/cm^2
- rate of cell necrosis ([1]; JURKAT cells in PBS, 200 ng/ml 8-MOP, all doses of UVA radiation tested (0.03-0.4 J/cm^2)): below 1%
- equivalent UVA dose (sigmoidal model of delta-apoptosis), BS02 irradiator ([1]; JURKAT cells in plasma, 333 ng/ml 8-MOP, BS02 irradiator in UVA): 4 J/cm^2
- equivalent UVA dose (sigmoidal model of delta-apoptosis), Macogenic G2 ([1]; JURKAT cells in plasma, 333 ng/ml 8-MOP, delivered with Macogenic G2): 2.1 J/cm^2
- UVA dose at which acceptance criterion for delta-apoptosis was reached ([1]; JURKAT cells in plasma/saline 50/50, 2% haematocrit, 333 ng/ml 8-MOP, Petri dish, BS02 irradiator): 4 J/cm^2
- UVA dose from which acceptance criterion in terms of proliferation inhibition was achieved [2, 3]: ≥ 2 J/cm^2
- UVA dose meeting the acceptance criterion in terms of inhibition of proliferation ([2]; JURKAT cells in PBS, 200 ng/ml 8-MOP, Petri dish, BS02 irradiator, criterion inhibition >70% 3 days after irradiation): 0.13 J/cm^2
- UVA dose at which acceptance criterion for rate of proliferation inhibition was reached ([2]; JURKAT cells in plasma/saline 50/50, 2% haematocrit, 333 ng/ml 8-MOP, Petri dish, BS02 irradiator, D+3): 3 J/cm^2

From patent US20240189615A1, “METHOD AND SYSTEM FOR PRODUCING APOPTOTIC MONONUCLEAR CELLS” (MACO PHARMA, priority 2020, published 2024)
